Entries after “also recorded” stand apart in the source; their conditions may differ. Read-outs that look alike come from different tables or passages of the source.
Tests used:
MDA-MB-435 cells = experiment: Antiproliferative SRB assay in MDA-MB-435 cells; type: cell-based, human; conditions: read-out: IC50 ± SD in MDA-435 Cells
Experimental: (§1) We investigated the microtubule depolymerization and the antiproliferative activities of compounds 4–14 (Table 2). […] We next evaluated the importance of the 4′-OMe group of compound 4 by replacing it with an isosteric 4′-SMe (5). […] Clearly, this further substantiated the importance of an S in the scaffold over an NH.
(§2) The antiproliferative and cytotoxic effects of the compounds in cancer cells were evaluated using the SRB assay as previously described. MDA-MB-435 cells were obtained from the Lombardi Cancer Center of Georgetown University (Washington, DC, USA). SK-OV-3 and HeLa cells were purchased from ATCC. Details about the generation of the SK-OV-3 MDR1-M6/6 and HeLa WTβIII cells were described previously. The IC50 values represent an average of three independent experiments, each conducted using triplicate points.
(§3) HeLa, A-10, SK-OV-3, and SK-OV-3 MDR1-M6/6 cells were grown in Basal Medium Eagle (Sigma-Aldrich, St. Louis, MO, USA) supplemented with 10% FBS (Hyclone, GE Life Sciences, Logan, UT, USA) 1% GlutaMAX (Gibco, Life Technologies, Waltham, MA, USA) and 50 µg/mL gentamycin (Life Technologies, USA). HeLa WTβIII cells were grown in Dulbecco’s Modified Eagle Medium (Life Technologies) supplemented with 10% FBS and 50 µg/mL gentamycin. MDA-MB-435 cells were maintained in Improved Minimum Essential Medium (Life Technologies) supplemented with 10% FBS and 25 µg/mL gentamycin. All cells were grown at 37 °C in a humidified environment with 5% CO2.

A-10 cells = experiment: Cellular microtubule depolymerization in A-10 cells (immunofluorescence); type: cell-based; conditions: for EC50: Rattus norvegicus, A10, 18 h, loss of 50% of interphase microtubules; for Microtubule depolymerization activity in A-10 cells: at a 10 µM concentration
Experimental: as §1
The effects of the compounds on cellular microtubules were evaluated in A-10 cells using indirect immunofluorescence microscopy. These cells were obtained from the American Type Culture Collection (ATCC) (Manassas, VA, USA). Cells were treated with the compounds of interest for 18 h, and the cells fixed with cold MeOH and microtubule structures were visualized using a β-tubulin antibody (Sigma-Aldrich, St. Louis, MO, USA). The concentration that caused loss of 50% of the interphase microtubules was defined as the EC50 and calculated as previously described. These values represent an average of at least three independent experiments.

Bovine brain tubulin = experiment: Inhibition of purified tubulin assembly (turbidity); type: biochemical; conditions: 10 µM tubulin, 30 °C; read-out: Inhibition of Tubulin Assembly IC50 ± SD
Experimental: (§4) Bovine brain tubulin was purified as described previously. The tubulin assembly assay has been described in detail. Briefly, 1.0 mg/mL of tubulin (10 µM) was preincubated for 15 min at 30 °C in 0.8 M monosodium glutamate (pH of 2 M stock solution adjusted to 6.6 with HCl), varying compound concentrations and 4% (v/v) DMSO as compound solvent. After the preincubation, the reaction mixtures were placed on ice and 0.4 mM GTP was added. The reaction mixtures were transferred to cuvettes at 0 °C in a recording spectrophotometer equipped with an electronic temperature controller. After baselines were established, the temperature was elevated over about 30 s to 30 °C, and changes in turbidity were monitored at 350 nm for 20 min. The compound concentration that caused a 50% reduction in increase in turbidity, interpolated from the values obtained with defined compound concentrations, was defined as the IC50 value. The assay to measure inhibition of [^3H]colchicine binding was described in detail previously. Briefly, 0.1 mg/mL (1.0 µM) tubulin was incubated at 37 °C with 5.0 µM [3H]colchicine and potential inhibitors at 5.0 µM. Incubation was for 10 min, at which point the reaction had reached 40–60% of the maximum colchicine that can be bound in reaction mixtures without inhibitor. The [^3H]colchicine was a product of PerkinElmer, USA. CA-4 was a generous gift of Dr. G. R. Pettit, Arizona State University.

SK-OV-3 MDR1-M6/6 cells = experiment: SRB assay in Pgp-expressing SK-OV-3 MDR1-M6/6 cells; type: cell-based; conditions: Homo sapiens, SKOV3-MDR1-M6/6, read-out: IC50 ± SD in SK-OV-3 MDR1-M6/6 Cells
Experimental: (§5) Comparison of the IC50 values in the parental SK-OV-3 and genetically manipulated SK-OV-3 MDR1-M6/6 cell line allows for the calculation of a relative resistance value, designated Rr. This value is calculated by dividing the IC50 value obtained in the Pgp-expressing SK-OV-3 MDR1-M6/6 cells by the IC50 obtained in the parental SK-OV-3 cells.
as §2, §3

tubulin = experiment: Inhibition of [3H]colchicine binding to tubulin; parameters: species or system Bovine; conditions: compound at 5 μM, 5.0 µM [3H]colchicine, 1.0 µM tubulin
Experimental: as §4, with “Incubation was for 10 min, at which point the reaction had reached 40–60% of the maximum colchicine that can be bound in reaction mixtures without inhibitor.” left out, “USA.” for “USA. CA-4 was a generous gift of Dr. G. R. Pettit, Arizona State University.”

HeLa WTβIII cells = experiment: SRB assay in βIII-tubulin expressing HeLa WTβIII cells; type: cell-based; conditions: Homo sapiens, read-out: IC50 ± SD in HeLa WTβ3
Experimental: (§6) Compounds 4–8, 10, 12, and 13 were evaluated for their abilities to overcome βIII-tubulin mediated drug resistance using an isogenic HeLa cell line pair (Table 4). […] The Rr values (Table 4) were calculated by dividing the IC50 of the βIII-tubulin expressing line by the IC50 obtained in the parental HeLa cells.
as §2, §3

HeLa cells = experiment: SRB assay in HeLa cells; type: cell-based; conditions: Homo sapiens, read-out: IC50 ± SD in HeLa
Experimental: as §6, §2, §3

SK-OV-3 cells = experiment: SRB assay in SK-OV-3 cells; type: cell-based; conditions: Homo sapiens, read-out: IC50 ± SD in SK-OV-3 Cells
Experimental: as §5, §2, §3

MDA-MB-435 tumors = experiment: MDA-MB-435 xenograft model; type: in vivo, nude mice; conditions: 15 mg/kg i.p. 3 times a week
Experimental: Compound 4 was selected for further evaluation in an in vivo xenograft mouse study in light of its nanomolar potency in vitro in the NCI-60 cancer cell line panel and its potent microtubule depolymerization activity. The in vivo effects of 4 were tested in the MDA-MB-435 xenograft model (Figure 5).
MDA-MB-435 tumor fragments were implanted s.c. into the flanks of female nude mice. […] Compound 4 was dissolved in a 50:50 Cremophor EL/DMSO mixture and further dissolved in PBS for a final concentration of 10:10:80 Cremophor EL:DMSO:PBS (v/v). […] Tumor volumes and mouse weights were measured 2–3 times a week. A two-way ANOVA with Dunnett’s post-hoc tests including all treatment groups in the trial was used to determine significant differences in tumor volumes between drug-treated and untreated control groups on each measurement day. These animal studies were performed at the University of Texas Health Science Center in San Antonio in compliance with an approved Institutional Animal Care and Use protocol.
MDA-MB-435 tumors were implanted into the flanks of nude mice and allowed to grow until they reached a volume of ~200 mm^3. […] Tumor volumes and mouse weights were measured 2–3 times a week. Statistical significance was evaluated by two-way ANOVA (time vs. drug) with Dunnett’s post-hoc tests. A statistically significant difference in tumor volume was detected on day 14 between mice treated with 4 (* p = 0.0384) and untreated control tumors.

IC50 (MDA-MB-435 cells; Homo sapiens) | EC50 (A-10 cells) | IC50 (Bovine brain tubulin) | IC50 (MDA-MB-435 cells) | IC50 (SK-OV-3 MDR1-M6/6 cells) | Inhibition of Colchicine Binding (% inhibition ± SD) (tubulin) | IC50 (HeLa WTβIII cells) | IC50 (HeLa cells) | IC50 (SK-OV-3 cells) | SMILES | Microtubule depolymerization activity in A-10 cells (A-10 cells) | Antitumor effects on MDA-MB-435 tumor volume vs control (MDA-MB-435 tumors)
< 40 nM | 70 nM | 490 ± 80 nM | 38.6 ± 5.6 nM | 74.1 ± 11 nM | 94.0 ± 2.0% | 44.1 ± 4.8 nM | 64.3 ± 4.3 nM | 71.8 ± 5.3 nM | CSc1ccc(N(C)c2nc(N)nc3sc4c(c23)CCCC4)cc1 [Compound 5, N4-methyl-N4-(4-(methylthio)phenyl)-5,6,7,8-tetrahydrobenzo[4,5]thieno[2,3-d] pyrimidine-2,4-diamine] | – | –
59.6 ± 11.8 nM | 121 nM | – | – | 91.7 ± 12 nM | – | 80.3 ± 6.4 nM | 123 ± 12 nM | 92.5 ± 3.3 nM | COc1ccc2c(c1)CCCN2c1nc(N)nc2sc3c(c12)CCCC3 [Compound 6, 4-(6-Methoxy-3,4-dihydroquinolin-1(2H)-yl)-5,6,7,8-tetrahydrobenzo[4,5]thieno[2,3-d]-pyrimidin-2-amine] | – | –
< 40 nM | 45 nM | 490 ± 60 nM | 36.8 ± 5.2 nM | 47.1 ± 7.6 nM | 95.0 ± 0.40% | 38 ± 3.9 nM | 57.2 ± 8.5 nM | 37 ± 6.2 nM | COc1ccc(N(C)c2ncnc3sc4c(c23)CCCC4)cc1 [Compound 7, N-(4-methoxyphenyl)-N-methyl-5,6,7,8-tetrahydrobenzo[4,5]thieno[2,3-d]pyrimidin-4-amine] | – | –
53 ± 0.3 nM | 52 nM | 560 ± 90 nM | – | 57.5 ± 0.5 nM | 96.0 ± 0.40% | 81.3 ± 5.2 nM | 87.9 ± 8.8 nM | 47.7 ± 1.2 nM | COc1ccc(N(C)c2nc(C)nc3sc4c(c23)CCCC4)cc1 [Compound 8, N-(4-methoxyphenyl)-N,2-dimethyl-5,6,7,8-tetrahydrobenzo[4,5]thieno[2,3-d]pyrimidin-4-amine] | – | –
– | – | – | – | – | – | – | – | – | COc1ccc(Nc2nc(C)nc3sc4c(c23)CCCC4)cc1 [Compound 9, N-(4-methoxyphenyl)-2-methyl-5,6,7,8-tetrahydrobenzo[4,5]thieno[2,3-d]pyrimidin-4-amine] | did not show any activity; also recorded: Not MT active ^c | –
87.7 ± 4.7 nM | 157 nM | 540 ± 80 nM | – | 209 ± 40 nM | 89.0 ± 0.20% | 108 ± 8.6 nM | 146 ± 14 nM | 136 ± 15 nM | CSc1ccc(N(C)c2nc(C)nc3sc4c(c23)CCCC4)cc1 [Compound 10, N,2-dimethyl-N-(4-(methylthio)phenyl)-5,6,7,8-tetrahydrobenzo[4,5]thieno[2,3-d]pyrimidin-4-amine] | – | –
– | – | – | – | – | – | – | – | – | CSc1ccc(Nc2nc(C)nc3sc4c(c23)CCCC4)cc1 [Compound 11, 2-Methyl-N-(4-(methylthio)phenyl)-5,6,7,8-tetrahydrobenzo[4,5]thieno[2,3-d]pyrimidin-4-amine] | did not show any activity; also recorded: Not MT active ^c | –
125 ± 14 nM | 150 nM | – | – | 223 ± 9.4 nM | – | 203 ± 12 nM | 191 ± 8.1 nM | 178 ± 1.1 nM | COc1ccc2c(c1)CCCN2c1nc(C)nc2sc3c(c12)CCCC3 [Compound 12, 4-(6-Methoxy-3,4-dihydroquinolin-1(2H)-yl)-2-methyl-5,6,7,8-tetrahydrobenzo[4,5]thieno[2,3-d]pyrimidine] | – | –
81.3 ± 8.4 nM | 118 nM | – | – | 143 ± 244 nM | – | 139 ± 20 nM | 170 ± 34 nM | 142 ± 22 nM | COc1cccc2cc(N(C)c3nc(C)nc4sc5c(c34)CCCC5)ccc12 [Compound 13, N-(5-methoxynaphthalen-2-yl)-N,2-dimethyl-5,6,7,8-tetrahydrobenzo[4,5]thieno[2,3-d]pyrimidin-4-amine] | – | –
– | – | – | – | – | – | – | – | – | Cc1nc(Nc2ccc3c(O)cccc3c2)c2c3c(sc2n1)CCCC3 [Compound 14, 6-((2-Methyl-5,6,7,8-tetrahydrobenzo[4,5]thieno [2,3-d]pyrimidin-4-yl)amino)naphthalen-1-ol] | did not show any activity; also recorded: Not MT active ^c | –
– | – | – | – | – | – | 24 ± 3 nM | 2.8 ± 0.4 nM | 5 ± 0.6 nM | CC(=O)O[C@H]1C(=O)[C@@]2(C)[C@H]([C@H](OC(=O)c3ccccc3)[C@]3(O)C[C@H](OC(=O)[C@H](O)[C@@H](NC(=O)c4ccccc4)c4ccccc4)C(C)=C1C3(C)C)[C@]1(OC(C)=O)CO[C@@H]1C[C@@H]2O [Paclitaxel, paclitaxel, reference compound] | – | did not reach statistical significance

SMILES | IC50 (MDA-MB-435 cells; Homo sapiens) | EC50 (A-10 cells) | IC50 (Bovine brain tubulin) | IC50 (MDA-MB-435 cells) | IC50 (SK-OV-3 MDR1-M6/6 cells) | Inhibition of Colchicine Binding (% inhibition ± SD) (tubulin) | IC50 (HeLa WTβIII cells) | IC50 (HeLa cells) | IC50 (SK-OV-3 cells) | Microtubule depolymerization activity in A-10 cells (A-10 cells) | Antitumor effects on MDA-MB-435 tumor volume vs control (MDA-MB-435 tumors)
COc1ccc(/C=C\c2cc(OC)c(OC)c(OC)c2)cc1O [CA-4, combretastatin A-4] | 3.4 ± 0.6 nM | 13 nM | 1000 ± 90 nM | – | – | – | – | – | – | – | –

From PMC8747035, “Design, Synthesis, and Biological Evaluation of 5,6,7,8-Tetrahydrobenzo[4,5]thieno[2,3-d]pyrimidines as Microtubule Targeting Agents” (Molecules, 2022)
